Where a name gives a salt, the structure may show the parent alone. Read-outs that look alike come from different tables or passages of the source.
Key:
[1] = target: T1, Human RORγ Ligand Binding Domain (RORγ-LBD) (Homo sapiens, UniProt P51449); assay: Dual Fluorescence Energy Transfer (FRET) assay, RORγ-LBD / SRC1(2) co-activator peptide interaction; assay type: biochemical; settings: mean of multiple test results if tested more than once; read-out: pIC50 in the dual FRET assay (converted)
T1 construct: made in house; host or cells: E. coli BL21(DE3), modified pET21a
T1 sequence (P51449 263-518): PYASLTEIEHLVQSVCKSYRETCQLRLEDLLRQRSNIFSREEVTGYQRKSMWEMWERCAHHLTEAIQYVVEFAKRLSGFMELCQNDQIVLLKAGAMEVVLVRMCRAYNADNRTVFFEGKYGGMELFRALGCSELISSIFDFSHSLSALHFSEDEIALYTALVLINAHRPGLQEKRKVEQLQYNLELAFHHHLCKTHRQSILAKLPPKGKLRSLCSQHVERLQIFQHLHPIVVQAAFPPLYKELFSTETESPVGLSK
From the text: This assay is based on the knowledge that nuclear receptors interact with cofactors (transcription factors) in a ligand dependent manner. RORγ is a typical nuclear receptor in that it has an AF2 domain in the ligand binding domain (LBD) which interacts with co-activators.
The assay measures ligand-mediated interaction of the co-activator peptide with the purified bacterial-expressed RORγ ligand binding domain (RORγ-LBD) to indirectly assess ligand binding. RORγ has a basal level of interaction with the co-activator SRC1(2) in the absence of ligand, thus it is possible to find ligands that inhibit or enhance the RORγ/SRC1(2) interaction.
Human RORγ Ligand Binding Domain (RORγ-LBD) was expressed in E.coli strain BL21(DE3) as an amino-terminal polyhistidine tagged fusion protein. DNA encoding this recombinant protein was sub-cloned into a modified pET21a expression vector (Novagen).
Approximately 50 g E. coli cell pellet was resuspended in 300 mL of lysis buffer (30 mM imidazole pH 7.0 and 150 mM NaCl). Cells were lysed by sonication and cell debris was removed by centrifugation for 30 minutes at 20,000 g at 4° C. […] The clarified lysate was loaded onto a column (XK-26) packed with ProBond Nickel Chelating resin (Invitrogen), pre-equilibrated with 30 mM imidazole pH 7.0 and 150 mM NaCl. After washing to baseline absorbance with the equilibration buffer, the column was developed with a gradient from 30 to 500 mM imidazole pH 7.0. Column fractions containing the RORγ-LBD protein were pooled and concentrated to a volume of 5 mls. The concentrated protein was loaded onto a Superdex 200 column pre-equilibrated with 20 mM Tris-CI pH 7.2 and 200 mM NaCl. The fractions containing the desired RORγ-LBD protein were pooled together.
Purified RORγ-LBD was buffer exchanged by exhaustive dialysis [3 changes of at least 20 volumes (>8000x)] against PBS [100mM NaPhosphate, pH 8 and 150mM NaC1]. […] The modified protein was distributed into aliquots, frozen on dry ice and stored at −80° C. The biotinylated RORγ-LBD was subjected to mass spectrometric analysis to reveal the extent of modification by the biotinylation reagent.
An appropriate amount of Europium labeled Streptavidin was then added to the biotinylated SRC1(2) solution in a tube to give a final concentration of 10 nM. The tube was inverted gently and incubated for 15 minutes at room temperature. Twenty-fold excess biotin from the 10 mM stock solution was added and the tube was inverted gently and incubated for 10 minutes at room temperature.
Preparation of APC labeled RORγ-LBD: biotinylated RORγ-LBD solution was prepared by adding an appropriate amount of biotinylated RORγ-LBD from the stock solution to a buffer containing 10 mM of freshly added DTT from solid to give a final concentration of 40 nM. An appropriate amount of APC labeled Streptavidin was then added to the biotinylated RORγ-LBD solution in a tube to give a final concentration of 20 nM. The tube was inverted gently and incubated for 15 minutes at room temperature. Twenty-fold excess biotin from the 10 mM stock solution was then added and the tube was inverted gently and incubated for 10 minutes at room temperature.
The reaction mixtures were incubated for 5 minutes. […] The plates were incubated for lhr and then read on ViewLux in Lance mode for EU/APC.

Mouse CD4+ cells = assay: Th17 cell differentiation assay (IL-17 ELISA); assay type: cell-based
Method: Mouse CD4+cells were purified using the CD4+ T Cell Isolation II Kit according to manufacturer's instructions (Miltenyi Biotec). 96 well plates were pre-coated with anti-mCD3 antibody. Un-coated wells were used as controls. CD4+ Cells were resuspended in RPMI 1640 complete medium and were added to the 96-well plates. Cytokine cocktail and the compound were then added to the wells. Antibodies and cytokines (all from R&D Systems) used in the assay were selected from the following: anti-mCD3; anti-mCD28; anti-mIFNγ; anti-mIL4; mIL-6; mIL-23; mIL-1β; hTGF-β1. The culture was incubated at 37° C. for 3 days and supernatants were collected for ELISA. The IL-17 ELISAs were performed according to manufacturer's instructions (R&D Systems). The results were analyzed using Prism software with non-linear regression to determine pIC50.

[2] = 72 h, mean pIC50, IL-17 ELISA, 3 days culture, detection limit of the assay 5, read-out: pIC50 in the Th17 cell differentiation assay (converted)

SMILES	IC50 [1]	IC50 (Mouse CD4+ cells; [2])	IC50 (Mouse CD4+ cells; table with percutaneous study, read-out: Th17 cell differentiation assay IC50)	IC50 (Mouse CD4+ cells; table with percutaneous study, read-out: Th17 cell differentiation assay pIC50 (converted))
Cc1c(CN2CCN(C(=O)C3CCCC3)[C@@H](C)C2)cc(Cl)cc1NC(=O)c1cccc(C#N)c1 [Example 193, (S)-N-(5-chloro-3-((4-(cyclopentanecarbonyl)-3-methylpiperazin-1-yl)methyl)-2-methylphenyl)-3-cyanobenzamide, trifluoroacetic acid salt]	~63.1 nM	~5.01 nM	–	–
Cc1c(CN2CCN(C(=O)C3CCCC3)[C@@H](C)C2)cc(F)cc1NC(=O)c1cccc(C#N)c1 [Example 66, (S)-3-cyano-N-(3-((4-(cyclopentanecarbonyl)-3-methylpiperazin-1-yl)methyl)-5-fluoro-2-methylphenyl)benzamide]	~39.8 nM	~0.794 nM	0.4 ng/mL	0.794 nM

From patent publication US10005731B2, “Modulators of the retinoid-related orphan receptor gamma (ROR-gamma) for use in the treatment of autoimmune and inflammatory diseases” (Glaxo Group Limited, priority 2012, dated 2018)
